The text below walks through data of patent publication US5808049A, “Stereospecific 5-fu esters and methods for preparing same” (Director-General of Agency of Industrial Science and …, priority 1994, dated 1998).

Data set [1] is described as follows: in vitro. To be noted: rat, xc cells, pH 7.5.
Experimental: (§1) Each of the reaction mixtures was prepared by dissolving 1 mg of the ester in 10 μl of ethanol, and by mixing with it, 90 μl of a 0.1M phosphoric acid buffer (having a pH of 7.5), plus one of the following: 100 μl of a cell suspension, or 20 or 30 μl of whole blood, or 50 μl of tissue homogenate. […] The cells numbers in 100 μl of the cell suspension used in the reaction were as follows: rat liver cancer cells Anr4=7×10^6 ; rat pancreas cancer cells ARIP=8×10^6 ; rat sarcoma cells XC=5×10^6 ; human histiocytic leukemia cells U937=1×10^7 ; human pancreas cancer cells MIA PaCa-2=8×10^6 ; and human intestinum crassum cancer cells Colo 320=1×10^7. Fifty μl of the tissue homogenate corresponded to 20 mg of wet tissue.
(§2) Each of these reaction mixtures was stirred for 12 hours at 30° C. by a magnetic stirrer; then 1.5 μl of 2N HCl was added, to bring the pH to about 2.5, and extraction with 1 ml of ethyl acetate in the presence of a saturated sodium chloride was carried out twice. The ethyl acetate layers of each sample were combined, the volume was adjusted to precisely 2 ml, and it was divided into 1.7 ml and 0.3 ml. The former was concentrated under reduced pressure, and the contained produced carboxylic acid was isolated by thin-layer preparative chromatography. A solution of diazomethane in ether was added to it, to methylate it, and the absolute configuration and the optical purity of the methylated product were determined by high-performance liquid chromatography using a chiral column. The latter 0.3 ml was directly methylated, and then it was concentrated and adjusted to 0.3 ml again, and the methyl ester of the contained produced carboxylic acid was determined quantitatively by gas chromatography, from which the hydrolyzed rate was determined. The column used in the high-performance liquid chromatography was a Chiralcell OJ or OD column (trade name; 4.6×250 mm) manufactured by Daicel; the elution was carried out by using a 10% 2-propanol/hexane mixture; and the flow velocity was 1 or 0.75 ml/min. The column used in the gas chromatography was a capillary column of OV-1 (0.25 mm×25 m), and the analysis temperature was 120° to 180° C.
For the next data set, the system named is rat sarcoma cells XC. The experiment in a line: Stereoselective hydrolysis of anticancer agent esters with rat sarcoma cells XC. To be noted: XC; 12 hours at 30° C., pH 7.5.
Data set [2] can be described thus: Stereoselective hydrolysis of anticancer agent esters with rat whole blood. To be noted: pH 7.5; for enantiomer excess of the carboxylic acid produced by the hydrolysis: rat whole blood, 12 hours at 30° C.; for metabolised at 12 h: rat, whole blood.
Experimental: as §1, §2
The nature of data set [3]: in vitro. To be noted: rat, blood, pH 7.5.
Experimental: as §1, §2
For data set [4], the system named is human intestinum crassum cancer cells Colo 320. The experiment in a line: Stereoselective hydrolysis of anticancer agent esters with human intestinum crassum cancer cells Colo 320. To be noted: Colo320; 12 hours at 30° C., pH 7.5.
Experimental: as §1, §2
Data set [5] relates to rat pancreas cancer cells ARIP. The experiment in a line: Stereoselective hydrolysis of anticancer agent esters with rat pancreas cancer cells ARIP. To be noted: ARIP; 12 hours at 30° C., pH 7.5.
Experimental: as §1, §2
A short description of data set [6]: in vitro. To be noted: human, colo 320 cells, pH 7.5.
Experimental: as §1, §2
Data set [7] is described as follows: Stereoselective hydrolysis of anticancer agent esters with normal rat liver homogenate. To be noted: 12 hours at 30° C., pH 7.5.
Data set [8] can be described thus: in vitro. To be noted: human, blood, pH 7.5.
Experimental: as §1, §2
Data set [9] is described as follows: Stereoselective hydrolysis of anticancer agent esters with human whole blood. To be noted: pH 7.5; for enantiomer excess of the carboxylic acid produced by the hydrolysis: human whole blood, 12 hours at 30° C.
Experimental: as §1, §2
Data set [10] can be described thus: in vitro. To be noted: rat, anr4 cells, pH 7.5.
Experimental: as §1, §2
Data set [11] has as its system human pancreas cancer cells MIA PaCa-2. As to the kind of experiment: Stereoselective hydrolysis of anticancer agent esters with human pancreas cancer cells MIA PaCa-2. To be noted: MIA PaCa-2; 12 hours at 30° C., pH 7.5.
Experimental: as §1, §2
A short description of data set [12]: Stereoselective hydrolysis of anticancer agent esters with normal rat pancreas homogenate. To be noted: 12 hours at 30° C., pH 7.5.
Experimental: as §1, §2
Data set [13] is described as follows: Stereoselective hydrolysis of anticancer agent esters with normal rat muscle homogenate. To be noted: 12 hours at 30° C., pH 7.5.
In data set [14] the test system is human histiocytic leukemia cells U937. As to the kind of experiment: Stereoselective hydrolysis of anticancer agent esters with human histiocytic leukemia cells U937. To be noted: U937; 12 hours at 30° C., pH 7.5.
Experimental: as §1, §2
The nature of data set [15]: in vitro. To be noted: human, mia paca-2 cells, pH 7.5.
Experimental: as §1, §2
Data set [16] is described as follows: in vitro. To be noted: human, u937 cells, pH 7.5.
Experimental: as §1, §2
Data set [17] can be described thus: in vitro. To be noted: rat, arip cells, pH 7.5.
Experimental: as §1, §2
Data set [18] has as its system rat liver cancer cells Anr4. The experiment in a line: Stereoselective hydrolysis of anticancer agent esters with rat liver cancer cells Anr4. To be noted: Anr4; 12 hours at 30° C., pH 7.5.
Experimental: as §1, §2
A short description of data set [19]: Stereoselective hydrolysis of anticancer agent esters with rat sarcoma cells XC. To be noted: rat, xc cells, pH 7.5.
Experimental: as §1, §2
The nature of data set [20]: Stereoselective hydrolysis of anticancer agent esters with rat pancreas cancer cells ARIP. To be noted: rat, arip cells, pH 7.5.
Experimental: as §1, §2
Data set [21] is described as follows: Stereoselective hydrolysis of anticancer agent esters with rat liver cancer cells Anr4. To be noted: rat, anr4 cells, pH 7.5.
Experimental: as §1, §2
For data set [22], the system named is rat liver cancer cells Anr4. As to the kind of experiment: Anticancer effect (suppression of multiplication) on rat liver cancer cells Anr4. It is filed as cell-based. To be noted: for multiplication of Anr4 cells suppressed to % of the control: same way as in Example 2 (Example 3); for multiplication of Anr4 cells suppressed to % of the control / number of cells, % for the value of the control: 2880 min; for suppression of multiplication of Anr4 cells, comparison of enantiomers: Ib: at 1 μM to 0.1 μM, Ic: at 10 μM; for number of cells, % for the value of the control: 6 hours exposure, then 42 hours in fresh medium. The procedure: The anticancer effect of levo-rotatory or dextro-rotatory 4-bis(2-chloroethyl)aminophenyl 2-methoxy-2-phenylacetate (Ib) on rat liver cancer cells Anr4 was tested. Anr4 cells were suspended, in an amount of cells number of 1×10^6 per 1 ml, in William's E medium containing 10% of fetal bovine serum, and 0.1 ml of the suspension was distributed to each well of a 24-well multiplate. Further, 1.385 ml of the above medium was added to each well. They were cultured for 4 hours at 37° C. in a CO2 incubator, and then 15 μl of pure ethanol or an ethanol solution containing (R)-(-)-Ib or (S)-(+)-Ib obtained in Synthetic. Example 4, having a concentration of 10 mM, 1 mM, 0.1 mM, 0.01 mM, or 0.001 mM, was added to the medium in each well, and they were mixed well.
After they were cultured for 6 hours in the above incubator, the medium was removed by suction, and 1.5 ml of fresh medium was added. After culturing was continued for 42 hours, the number of cells in each well was counted by a Coulter counter. The results, in terms of % for the value of the control (the well added pure ethanol), were 9%, 12%, 16%, 55%, and 95% for the concentrations of 100 μM, 10 μM, 1 μM, 0.1 μM, and 0.01 μM of (R)-(-)-Ib in the medium, respectively. For the concentrations of 100 μM, 10 μM, 1 μM, 0.1 μM, and 0.01 μM of (S)-(+)-Ib in the medium, the results were 9%, 18%, 30%, 83%, and 95%, respectively.
The anticancer effect of the optically active substances of Ic obtained in Synthetic Example 5 on Anr4 cells was tested in the same way as in Example 2. As a result, at 10 μM, (R)-(+)-Ic suppressed the multiplication of Anr4 cells to 14% of the control, and (S)-(-)-Ic suppressed the multiplication of Anr4 cells to 25% of the control.

As to `CC(C(=O)Oc1ccc(N(CCCl)CCCl)cc1)c1ccccc1` (racemic) [Ia, (±)-4-bis(2-chloroethyl)aminophenyl 2-phenylpropionate], the metabolised at 12 h in “in vitro [1]” is 6.3%; in the data set “in vitro [3]” it was 5.8%; in the data set “in vitro [6]”, 3%; in “in vitro [8]”, 2.4%; in the data set “in vitro [10]”, 20.9%; in “in vitro [15]” it was 6%. Moreover, the metabolised at 12 h in the data set “in vitro [16]” is 5.2%; in “in vitro [17]” it was 10.2%. For the same compound, the “enantiomer excess of the carboxylic acid produced by the hydrolysis” value (“enantiomer excess” below) is reported as 18.6 % e.e in the data set on rat sarcoma cells XC; 9.4 % e.e in [2]; 68.9 % e.e in data set [4]; 42.8 % e.e in data set [5]; 15.7 % e.e in [7]; 9.1 % e.e in [9]. Further, the “enantiomer excess” value was 87.1 % e.e in data set [11]; 1.0 % e.e in data set [12]; 1.8 % e.e in data set [13]; 72.3 % e.e in data set [14]; 68.9 % e.e in data set [18].
For `CC(C(=O)OC[C@H]1O[C@@H](n2cc(F)c(=O)[nH]c2=O)[C@H](O)[C@@H]1O)c1ccccc1` (stereo partly drawn) [IIa, 5'-(RS)-(2-phenylpropionyl)-5-fluorouridine], the metabolised at 12 h in data set [19] was determined as 16.8%; in data set [2], 6.3%; in [20], 25.2%; in data set [9] (human, whole blood) it was 5.3%; in data set [21] it was 26.3%. The “enantiomer excess” value is on record as 82.1 % e.e in the data set with rat sarcoma cells XC; 53.7 % e.e in data set [2]; 91.3 % e.e in data set [5]; 85.6 % e.e in [7]; 12.5 % e.e in data set [9]; 36.9 % e.e in data set [12]. The “enantiomer excess” value in data set [13] is reported as 61.7 % e.e; in data set [14] it was 38.2 % e.e; in [18], 81.6 % e.e.
As to `O=C(Oc1ccc(N(CCCl)CCCl)cc1)[C@@H](Cc1ccccc1)NC(=O)C(F)(F)F` [(R)-(+)-Ic, 4-bis(2-chloroethyl)aminophenyl 2-trifluoroacetamido-3-phenylpropionate], the “multiplication of Anr4 cells suppressed to % of the control” value in data set [22] (10 μM) turned out to be 14%. In addition, the “suppression of multiplication of Anr4 cells, comparison of enantiomers” value in data set [22] is listed as “stronger cell multiplication-suppressing effect than (S)-(-)-Ic”.
On to `O=C(Oc1ccc(N(CCCl)CCCl)cc1)[C@H](Cc1ccccc1)NC(=O)C(F)(F)F` [(S)-(-)-Ic, 4-bis(2-chloroethyl)aminophenyl 2-trifluoroacetamido-3-phenylpropionate], for which the “multiplication of Anr4 cells suppressed to % of the control” value in data set [22] (10 μM) was found to be 25%.
In the case of `CO[C@@H](C(=O)Oc1ccc(N(CCCl)CCCl)cc1)c1ccccc1` [(R)-(-)-Ib, 4-bis(2-chloroethyl)aminophenyl 2-methoxy-2-phenylacetate], the “number of cells, % for the value of the control” value in [22] (0.01 μM) turned out to be 95%; in [22] (0.1 μM) it was 55%; in data set [22] (1 μM), 16%; in [22] (10 μM), 12%; in data set [22] (100 μM) it was 9%. Further, the “suppression of multiplication of Anr4 cells, comparison of enantiomers” value in data set [22] is recorded as “suppressed the multiplication of Anr4 cells more strongly than dextro-rotatory (S)-(+)-Ib did”.
Consider `COC(C(=O)Oc1ccc(N(CCCl)CCCl)cc1)c1ccccc1` (racemic) [Ib, (±)-4-bis(2-chloroethyl)aminophenyl 2-methoxy-2-phenylacetate], for which the metabolised at 12 h in “in vitro [1]” was 23.9%; in “in vitro [3]”, 55.2%; in “in vitro [10]”, 14%; in “in vitro [17]”, 55.2%. The “enantiomer excess” value in the data set on rat sarcoma cells XC is 69.9 % e.e; in [2], 20.4 % e.e; in data set [5] it was 26.8 % e.e; in data set [7] it was 33.2 % e.e; in data set [12] it was 8.4 % e.e; in data set [13], 46.0 % e.e. The “enantiomer excess” value in [18] was determined as 91.3 % e.e.
For the compound `COC(C(=O)OC[C@H]1O[C@@H](n2cc(F)c(=O)[nH]c2=O)[C@H](O)[C@@H]1O)c1ccccc1` (stereo partly drawn) [IIb, 5'-(RS)-(2-methoxy-2-phenylacetyl)-5-fluorouridine], the metabolised at 12 h in data set [19] is 23%; in [2], 14.8%; in [20] it was 27.7%; in [21], 23.7%. In addition, the “enantiomer excess” value worked out at 81.5 % e.e in the data set on rat sarcoma cells XC; 55.0 % e.e in data set [2]; 84.1 % e.e in data set [5]; 6.0 % e.e in data set [7]; 42.5 % e.e in [12]; 18.5 % e.e in [13]. The “enantiomer excess” value in [18] stood at 81.1 % e.e.
Take `CO[C@H](C(=O)Oc1ccc(N(CCCl)CCCl)cc1)c1ccccc1` [(S)-(+)-Ib, 4-bis(2-chloroethyl)aminophenyl 2-methoxy-2-phenylacetate]: the “number of cells, % for the value of the control” value is given as 95% in data set [22] (0.01 μM); 83% in data set [22] (0.1 μM); 30% in data set [22] (1 μM); 18% in data set [22] (10 μM); 9% in data set [22] (100 μM).
